Data from DBAASP.
Converted amounts (≈) assume the structure as drawn. Values belong to the compound of their own block, whether it stands above or below them.

Tests used:
Assay in all cases: ≥ marks a high value that may be exact or a test limit, other limits are often not marked, values filed in µg/mL are converted to µM
[1] = system: Pseudomonas fluorescens ATCC 13525
[2] = system: Staphylococcus aureus ATCC 2592
[3] = system: Candida albicans ATCC 2002
[4] = system: Bacillus subtilis ATCC 6633
[5] = system: Streptococcus mutans ATCC 10449
[6] = system: Helicobacter pylori ATCC 43504
[7] = system: Pseudomonas aeruginosa ATCC 27853
[8] = system: Pseudomonas aeruginosa PAO239
[9] = system: Stenotrophomonas maltophilia
[10] = system: Acinetobacter baumannii
[11] = system: Candida albicans NCTC 3179
[12] = system: Staphylococcus aureus ATCC 25923
[13] = system: Escherichia coli ATCC 25922
[14] = system: Enterococcus faecalis NCTC 12697
[15] = system: Fusobacterium nucleatum NCTC 10562
[16] = system: Escherichia coli ATCC 25726
[17] = system: Staphylococcus aureus 01-001
[18] = system: Acinetobacter baumannii 5821
[19] = system: Pseudomonas aeruginosa ATCC 9027
[20] = system: Klebsiella pneumoniae 01-239
[21] = system: Staphylococcus aureus ATCC 29213
[22] = system: Escherichia coli 09-280
[23] = system: Pseudomonas aeruginosa 3599
[24] = system: Staphylococcus aureus 06-051
[25] = system: Escherichia coli 170
[26] = system: Enterobacter cloacae 06-267
[27] = system: Pseudomonas aeruginosa 5106
[28] = system: Enterobacter cloacae 14-262
[29] = system: Escherichia coli 5509
[30] = system: Escherichia coli 09-240
[31] = system: Klebsiella pneumoniae 01-252
[32] = system: Enterococcus faecalis ATCC 29212
[33] = system: Staphylococcus aureus NCTC 10788
[34] = system: Staphylococcus aureus ST1065
[35] = system: Escherichia coli ML-35p
[36] = system: Candida albicans NCYC 1467
[37] = system: Staphylococcus aureus ATCC 43300
[38] = system: Staphylococcus aureus ATCC BAA-44
[39] = system: Candida parapsilosis ATCC 22019
[40] = system: Bacillus licheniformis X39
[41] = system: Staphylococcus carnosus KHS
[42] = system: Enterococcus faecium 091299
[43] = system: Rhodococcus rhodochrous X15
[44] = system: Psychrobacter faecalis X29

- MIC [1]: ≥ 38.8 µM
- MIC [2]: 2.42 µM (≈ 6.25 µg/mL)
- MIC [3]: 19.4 µM (≈ 50 µg/mL)
- MIC [4]: 2.42 µM (≈ 6.25 µg/mL)
SMILES: CC[C@H](C)[C@H](NC(=O)[C@H](CCCN=C(N)N)NC(=O)[C@H](CC(C)C)NC(=O)[C@H](C)NC(=O)[C@H](CO)NC(=O)CNC(=O)[C@H](CCSC)NC(=O)[C@@H](N)Cc1ccccc1)C(=O)N[C@@H](C)C(=O)N[C@@H](C)C(=O)N[C@@H](CCCCN)C(=O)N[C@H](C(=O)N[C@@H](CC(C)C)C(=O)N1CCC[C@H]1C(=O)N[C@@H](C)C(=O)N[C@@H](C)C(=O)N[C@@H](CC(C)C)C(=O)N[C@H]1CSSC[C@@H](C(=O)O)NC(=O)[C@H](CCCCN)NC(=O)[C@H](CCCCN)NC(=O)[C@H](Cc2ccccc2)NC(=O)[C@H]([C@@H](C)CC)NC(=O)[C@H](CCC(N)=O)NC1=O)C(C)C [FMGSALRIAAKVLPAALCQIFKKC]

- MIC [5]: 3.1 µM (≈ 6.42 µg/mL)
- MIC [6]: 0.483 µM (≈ 1 µg/mL)
- MIC [7]: 12.5 µM (≈ 25.9 µg/mL)
- MIC [8]: 25 µM (≈ 51.7 µg/mL)
- MIC [9]: 5.66 µM (≈ 11.7 µg/mL)
- MIC [10]: 11.3 µM (≈ 23.4 µg/mL)
- MIC [11]: ≥ 50 µM
- MIC [12]: 35.4 µM (≈ 73.2 µg/mL)
- MIC [13]: 25 µM (≈ 51.7 µg/mL)
- MIC [14]: ≥ 100 µM
- MIC [15]: 12.5 µM (≈ 25.9 µg/mL)
- MIC [16]: 12.5 µM (≈ 25.9 µg/mL)
SMILES: CSCC[C@H](NC(=O)CN)C(=O)N[C@@H](C)C(=O)N[C@@H](CO)C(=O)N[C@@H](CCCCN)C(=O)N[C@@H](C)C(=O)NCC(=O)N[C@@H](CO)C(=O)N[C@H](C(=O)N[C@@H](CC(C)C)C(=O)NCC(=O)N[C@@H](CCCCN)C(=O)N[C@H](C(=O)N[C@@H](C)C(=O)N[C@@H](CCCCN)C(=O)N[C@H](C(=O)N[C@@H](C)C(=O)N[C@@H](CC(C)C)C(=O)N[C@@H](CCCCN)C(=O)N[C@@H](C)C(=O)N[C@@H](C)C(=O)N[C@@H](CC(C)C)C(N)=O)C(C)C)C(C)C)C(C)C [GMASKAGSVLGKVAKVALKAAL]

- MIC [17]: 2 µM (≈ 2.89 µg/mL)
- MIC [18]: 14 µM (≈ 20.2 µg/mL)
- MIC [7]: > 32 µM
- MIC [19]: 2 µM (≈ 2.89 µg/mL)
- MIC [20]: ≥ 32 µM
- MIC [21]: 4 µM (≈ 5.77 µg/mL)
- MIC [22]: ≥ 32 µM
- MIC [23]: ≥ 32 µM
- MIC [24]: 2 µM (≈ 2.89 µg/mL)
- MIC [12]: 1 µM (≈ 1.44 µg/mL)
- MIC [25]: ≥ 32 µM
- MIC [26]: ≥ 32 µM
- MIC [13]: 15 µM (≈ 21.6 µg/mL)
- MIC [27]: ≥ 32 µM
- MIC [28]: ≥ 32 µM
- MIC [29]: ≥ 32 µM
- MIC [30]: 30 µM (≈ 43.3 µg/mL)
- MIC [31]: ≥ 32 µM
SMILES: CC[C@H](C)[C@H](N)C(=O)N[C@@H](Cc1c[nH]c2ccccc12)C(=O)N[C@@H](CO)C(=O)N[C@@H](C)C(=O)N[C@H](C(=O)N[C@@H](Cc1c[nH]c2ccccc12)C(=O)N[C@@H](CO)C(=O)NCC(=O)N[C@H](C(=O)N[C@@H](CCCCN)C(=O)NCC(=O)N[C@@H](CC(C)C)C(=O)N[C@@H](CC(C)C)C(N)=O)[C@@H](C)CC)[C@@H](C)CC [IWSAIWSGIKGLL]

- MIC [32]: 100 µM (≈ 180 µg/mL)
- MIC [33]: 17.8 µM (≈ 32 µg/mL)
- MIC [7]: > 100 µM
- MIC [34]: ≥ 100 µM
- MIC [35]: ≥ 100 µM
- MIC [36]: ≥ 71.2 µM
- MIC [12]: 25 µM (≈ 44.9 µg/mL)
- MIC [37]: > 100 µM
- MIC [13]: > 100 µM
- MIC [38]: ≥ 100 µM
- MIC [39]: ≥ 100 µM
SMILES: CC[C@H](C)[C@H](NC(=O)[C@H](C)NC(=O)[C@H](CO)NC(=O)[C@@H](NC(=O)[C@H](C)NC(=O)[C@@H](NC(=O)[C@@H]1CCCN1C(=O)[C@@H](NC(=O)[C@H](CCSC)NC(=O)CNC(=O)[C@H](CC(C)C)NC(=O)[C@@H](N)CC(C)C)[C@@H](C)CC)C(C)C)[C@@H](C)CC)C(=O)N[C@@H](CO)C(=O)N[C@@H](C)C(=O)N[C@@H](CC(C)C)C(=O)N[C@@H](CO)C(=O)N[C@@H](CCCCN)C(=O)N[C@@H](CC(C)C)C(N)=O [LLGMIPVAISAISALSKL]

- MIC [40]: ≥ 37.5 µM
- MIC [3]: 19 µM (≈ 62.8 µg/mL)
- MIC [41]: ≥ 150 µM
- MIC [12]: 19 µM (≈ 62.8 µg/mL)
- MIC [42]: ≥ 150 µM
- MIC [43]: 9.5 µM (≈ 31.4 µg/mL)
- MIC [44]: 9.5 µM (≈ 31.4 µg/mL)
SMILES: CC[C@H](C)[C@H](NC(=O)[C@H](CC(C)C)NC(=O)[C@H](CC(C)C)NC(=O)[C@H](CC(=O)O)NC(=O)[C@H](CCCCN)NC(=O)[C@@H](NC(=O)[C@@H](NC(=O)CNC(=O)[C@H](CC(C)C)NC(=O)[C@H](CC(C)C)NC(=O)[C@@H](N)CO)[C@@H](C)O)C(C)C)C(=O)NCC(=O)N[C@@H](C)C(=O)NCC(=O)N[C@@H](CCCCN)C(=O)N[C@@H](CO)C(=O)N[C@@H](C)C(=O)N[C@@H](C)C(=O)N[C@@H](CCC(N)=O)C(=O)N[C@@H](CO)C(=O)N[C@H](C(=O)N[C@@H](CC(C)C)C(=O)N[C@@H](CCCCN)C(=O)NCC(=O)N[C@@H](CC(C)C)C(=O)N[C@@H](CO)C(=O)N[C@H]1CSSC[C@@H](C(=O)O)NC(=O)[C@H](CC(=O)O)NC(=O)[C@H](CCCCN)NC(=O)[C@H](CO)NC(=O)[C@H](CC(C)C)NC(=O)[C@H](CCCCN)NC1=O)C(C)C [SLLGTVKDLLIGAGKSAAQSVLKGLSCKLSKDC]
